Data from PMC7898037, “Improving mitochondria and ER stability helps eliminate upper motor neuron degeneration that occurs due to mSOD1 toxicity and TDP‐43 pathology” (Clinical and Translational Medicine, 2021).

Test: Weight of the mice
Assay type: in vivo
Set-up: Mean Diff. of weight, vehicle vs. NU-9: unit not given here
Conditions: for Mean weight (Mean 2): hSOD1G93A-UeGFP mice, in g (unit assumed); for Weight, Average: hSOD1G93A-UeGFP
Protocol: hSOD1^G93A‐UeGFP, prpTDP‐43^A315T‐UeGFP and WT‐UeGFP mice were weighed and the required NU‐9 dose per weight was calculated (20 or 100 mg/kg), which was administered once daily by oral gavage, starting at postnatal day (P)60 and continuing until P120. Animals from the untreated group received the vehicle (NMP and olive oil) only. For oral administration purposes, 20 ga × 38 mm plastic feeding tubes were used (Instech Laboratories, Inc). The gavage tip was inserted into the mouth directly over the tongue and into the pharynx. While observing the swallowing reflex, the tip was safely and smoothly slid into the esophagus. Once the administration was completed, the gavage tip was pulled straight out.
Behavior data were collected from hSOD1^G93A‐UeGFP and WT‐UeGFP mice (starting at P60 and every 7 days until P116) and from prpTDP‐43^A315T‐UeGFP mice (at P60, P90, and P120) with the following number of mice for each group: WT‐UeGFP vehicle (n = 10), hSOD1^G93A‐UeGFP vehicle (n = 6), WT‐UeGFP 20 mg/kg/day NU‐9 (n = 5), hSOD1^G93A‐UeGFP 20 mg/kg/day NU‐9 (n = 7), WT‐UeGFP 100 mg/kg/day NU‐9 (n = 11), hSOD1^G93A‐UeGFP 100 mg/kg/day NU‐9 (n = 9), prpTDP‐43^A315T‐UeGFP untreated (n ≥ 3), and prpTDP‐43^A315T‐UeGFP 100 mg/kg/day NU‐9 (n = 4) (Table S3).

C[C@H](Oc1cc(C(F)(F)F)cc(C(F)(F)F)c1)C1CC(=O)CC(=O)C1 [NU‐9]
Mean Diff. of weight, vehicle vs. NU-9 (hSOD1G93A-UeGFP (vehicle) vs. hSOD1G93A-UeGFP (NU-9 20 mg/kg/day), P60, Tukey's multiple comparisons test): 0.6667 | Mean Diff. of weight, vehicle vs. NU-9 (hSOD1G93A-UeGFP (vehicle) vs. hSOD1G93A-UeGFP (NU-9 20 mg/kg/day), P67, Tukey's multiple comparisons test): 0.6429 | Mean Diff. of weight, vehicle vs. NU-9 (hSOD1G93A-UeGFP (vehicle) vs. hSOD1G93A-UeGFP (NU-9 20 mg/kg/day), P74, Tukey's multiple comparisons test): 0.2381 | Mean Diff. of weight, vehicle vs. NU-9 (hSOD1G93A-UeGFP (vehicle) vs. hSOD1G93A-UeGFP (NU-9 20 mg/kg/day), P81, Tukey's multiple comparisons test): 0.5952 | Mean Diff. of weight, vehicle vs. NU-9 (hSOD1G93A-UeGFP (vehicle) vs. hSOD1G93A-UeGFP (NU-9 20 mg/kg/day), P88, Tukey's multiple comparisons test): 0.2857 | Mean Diff. of weight, vehicle vs. NU-9 (hSOD1G93A-UeGFP (vehicle) vs. hSOD1G93A-UeGFP (NU-9 20 mg/kg/day), P95, Tukey's multiple comparisons test): 0.7619 | Mean Diff. of weight, vehicle vs. NU-9 (hSOD1G93A-UeGFP (vehicle) vs. hSOD1G93A-UeGFP (NU-9 20 mg/kg/day), P102, Tukey's multiple comparisons test): 0.5714 | Mean Diff. of weight, vehicle vs. NU-9 (hSOD1G93A-UeGFP (vehicle) vs. hSOD1G93A-UeGFP (NU-9 20 mg/kg/day), P109, Tukey's multiple comparisons test): 0.4762 | Mean Diff. of weight, vehicle vs. NU-9 (hSOD1G93A-UeGFP (vehicle) vs. hSOD1G93A-UeGFP (NU-9 20 mg/kg/day), P116, Tukey's multiple comparisons test): -0.1429 | Mean Diff. of weight, vehicle vs. NU-9 (hSOD1G93A-UeGFP (vehicle) vs. hSOD1G93A-UeGFP (NU-9 100 mg/kg/day), P60, Tukey's multiple comparisons test): 1.222 | Mean Diff. of weight, vehicle vs. NU-9 (hSOD1G93A-UeGFP (vehicle) vs. hSOD1G93A-UeGFP (NU-9 100 mg/kg/day), P67, Tukey's multiple comparisons test): 1.167 | Mean Diff. of weight, vehicle vs. NU-9 (hSOD1G93A-UeGFP (vehicle) vs. hSOD1G93A-UeGFP (NU-9 100 mg/kg/day), P74, Tukey's multiple comparisons test): 0.2222 | Mean Diff. of weight, vehicle vs. NU-9 (hSOD1G93A-UeGFP (vehicle) vs. hSOD1G93A-UeGFP (NU-9 100 mg/kg/day), P81, Tukey's multiple comparisons test): 0.7222 | Mean Diff. of weight, vehicle vs. NU-9 (hSOD1G93A-UeGFP (vehicle) vs. hSOD1G93A-UeGFP (NU-9 100 mg/kg/day), P88, Tukey's multiple comparisons test): 0.1111 | Mean Diff. of weight, vehicle vs. NU-9 (hSOD1G93A-UeGFP (vehicle) vs. hSOD1G93A-UeGFP (NU-9 100 mg/kg/day), P95, Tukey's multiple comparisons test): 0.1111 | Mean Diff. of weight, vehicle vs. NU-9 (hSOD1G93A-UeGFP (vehicle) vs. hSOD1G93A-UeGFP (NU-9 100 mg/kg/day), P102, Tukey's multiple comparisons test): 0 | Mean Diff. of weight, vehicle vs. NU-9 (hSOD1G93A-UeGFP (vehicle) vs. hSOD1G93A-UeGFP (NU-9 100 mg/kg/day), P109, Tukey's multiple comparisons test): 0.5556 | Mean Diff. of weight, vehicle vs. NU-9 (hSOD1G93A-UeGFP (vehicle) vs. hSOD1G93A-UeGFP (NU-9 100 mg/kg/day), P116, Tukey's multiple comparisons test): 0.1111 | Mean weight (Mean 2) (NU-9 20 mg/kg/day, P60): 17 | Mean weight (Mean 2) (NU-9 20 mg/kg/day, P67): 16.86 | Mean weight (Mean 2) (NU-9 20 mg/kg/day, P74): 16.43 | Mean weight (Mean 2) (NU-9 20 mg/kg/day, P81): 16.57 | Mean weight (Mean 2) (NU-9 20 mg/kg/day, P88): 16.71 | Mean weight (Mean 2) (NU-9 20 mg/kg/day, P95): 16.57 | Mean weight (Mean 2) (NU-9 100 mg/kg/day, P60): 16.44 | Mean weight (Mean 2) (NU-9 100 mg/kg/day, P67): 16.33 | Mean weight (Mean 2) (NU-9 100 mg/kg/day, P74): 16.44 | Mean weight (Mean 2) (NU-9 100 mg/kg/day, P81): 16.44 | Mean weight (Mean 2) (NU-9 100 mg/kg/day, P88): 16.89 | Mean weight (Mean 2) (NU-9 100 mg/kg/day, P95): 17.22 | Weight, Average (NU-9 20 mg/kg/day po, P60): 17 g | Weight, Average (NU-9 20 mg/kg/day po, P67): 16.8571 g | Weight, Average (NU-9 20 mg/kg/day po, P74): 16.4286 g | Weight, Average (NU-9 20 mg/kg/day po, P81): 16.5714 g | Weight, Average (NU-9 20 mg/kg/day po, P88): 16.7143 g | Weight, Average (NU-9 20 mg/kg/day po, P95): 16.5714 g | Weight, Average (NU-9 20 mg/kg/day po, P102): 16.4286 g | Weight, Average (NU-9 20 mg/kg/day po, P109): 16.8571 g | Weight, Average (NU-9 20 mg/kg/day po, P116): 17.1429 g | Weight, Average (NU-9 100 mg/kg/day po, P60): 16.4444 g | Weight, Average (NU-9 100 mg/kg/day po, P67): 16.3333 g | Weight, Average (NU-9 100 mg/kg/day po, P74): 16.4444 g | Weight, Average (NU-9 100 mg/kg/day po, P81): 16.4444 g | Weight, Average (NU-9 100 mg/kg/day po, P88): 16.8889 g | Weight, Average (NU-9 100 mg/kg/day po, P95): 17.2222 g | Weight, Average (NU-9 100 mg/kg/day po, P102): 17 g | Weight, Average (NU-9 100 mg/kg/day po, P109): 16.7778 g | Weight, Average (NU-9 100 mg/kg/day po, P116): 16.8889 g
